For assay [1], the target named is T1, GDP-loaded KRAS (1-169) G12C, C51S, C80L, C118S (Homo sapiens, UniProt P01116, C118S/C51S/C80L/G12C).
T1 construct: GDP-loaded KRAS (1-169) G12C, C51S, C80L, C118S
In words: Mass Spectrometry Reactivity Assay (MSRA): covalent adduct of compound and KRAS G12C, Percent Modification. The following applies: for MSRA (% modification) 10 μM 0.50 hr / MSRA (% modification) 10 μM 0.25 hr: 10 μM compound; for MSRA (% modification) 5.0 μM 0.25 hr: 5.0 μM compound. It is filed as binding. The method, boiled down: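 GDP-loaded KRAS(1-169) G12C/C51S/C80L/C118S at 5 μM in 25 mM Hepes pH 7.5, 200 mM NaCl, 5% glycerol incubated at RT with compound (typically 5 or 10 μM final, 1% DMSO). Quenched in formic acid at 1-60 min; intact-protein LC-TOF MS gives % modification = modified/(modified+unmodified).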

In assay [2] the target is KRAS G12C (Homo sapiens, UniProt P01116, G12C). In words: Cell Activity Assay: accumulation of GDP-bound KRAS G12C in MIAPaCa-2 cells (Raf-1 RBD capture, MSD readout). The following applies: 6 hours, assay limit is 30.00. Further details: endogenous in cells; host or cells: MIAPaCa-2. The assay is classed as cell-based. The method, boiled down:
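MIAPaCa-2 cells exposed 6 h at 37 °C to 3-fold compound dilutions (0.3% DMSO final), then lysed. Active GTP-KRAS captured on Raf-1 RBD-coated plates, detected with anti-pan-Ras and SULFO-TAG secondary by MSD electrochemiluminescence. Signal normalized to DMSO and maximum inhibition; IC50 from 4-parameter fit.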

Consider 22 molecules from US10662204B2 (PFIZER INC., priority 2018, dated 2020).

For the molecule `C=CC(=O)N1CCN(c2nc(N3CC(N(C)C)C3)nc3c(Oc4c(C)ccc5[nH]ncc45)cccc23)CC1` [Example 02E, 1-(4-{2-[3-(dimethylamino)azetidin-1-yl]-8-[(5-methyl-1H-indazol-4-yl)oxy]quinazolin-4-yl}piperazin-1-yl)prop-2-en-1-one], in assay [1], the “MSRA (% modification) 10 μM 0.50 hr” value stood at 32%. Besides, the concentration for half-maximal inhibition (IC50) (in general, the midpoint of a concentration-inhibition curve) in assay [2] amounted to 6.46 µM.

Consider `C=CC(=O)N1CCN(c2nc(NCc3nncn3C)nc3c(Oc4c(C)ccc5[nH]ncc45)cccc23)CC1` [Example 02F, 1-[4-(8-[(5-methyl-1H-indazol-4-yl)oxy]-2-{[(4-methyl-4H-1,2,4-triazol-3-yl)methyl]amino}quinazolin-4-yl)piperazin-1-yl]prop-2-en-1-one], for which, in assay [1], the “MSRA (% modification) 10 μM 0.50 hr” value is given as 14%. For the same molecule, in assay [2], the IC50 was above 30 µM.

Regarding `C=CC(=O)N1CCN(c2nc(N3CC(C)(C#N)C3)nc3c(Oc4c(Cl)c(F)cc5[nH]ncc45)nc(Cl)cc23)CC1` [Example 02G, 1-{4-(4-acryloylpiperazin-1-yl)-6-chloro-8-[(5-chloro-6-fluoro-1H-indazol-4-yl)oxy]pyrido[3,4-d]pyrimidin-2-yl}-3-methylazetidine-3-carbonitrile], in assay [1], the “MSRA (% modification) 5.0 μM 0.25 hr” value is recorded as 73% and the “MSRA (% modification) 10 μM 0.25 hr” value amounted to 75%. Also, half-maximal inhibition in assay [2] (IC50) was put at 0.584 µM.

As to `C=CC(=O)N1CCN(c2nc(N3CC(N(C)C)C3)nc3c(Oc4c(Cl)c(F)cc5[nH]ncc45)nccc23)CC1` [Example 02H, 1-(4-{8-[(5-chloro-6-fluoro-1H-indazol-4-yl)oxy]-2-[3-(dimethylamino)azetidin-1-yl]pyrido[3,4-d]pyrimidin-4-yl}piperazin-1-yl)prop-2-en-1-one], the “MSRA (% modification) 10 μM 0.25 hr” value in assay [1] is 53%. In addition, in assay [2], the concentration for half-maximal inhibition (IC50) was found to be 0.505 µM.

With `C=CC(=O)N1CCN(c2nc(OC[C@]3(F)CCCN(C)C3)nc3c(Oc4c(Cl)c(F)cc5[nH]ncc45)nccc23)CC1` [Example 02I, 1-[4-(8-[(5-chloro-6-fluoro-1H-indazol-4-yl)oxy]-2-{[(3S)-3-fluoro-1-methylpiperidin-3-yl]methoxy}pyrido[3,4-d]pyrimidin-4-yl)piperazin-1-yl]prop-2-en-1-one], in assay [1], the “MSRA (% modification) 5.0 μM 0.25 hr” value is listed as 81%. In assay [2], this molecule showed an IC50 of 0.049 µM.

In the case of `C=CC(=O)N1CCN(c2nc(O[C@@H]3CCOC3)nc3c(Oc4c(Cl)c(F)cc5[nH]ncc45)nccc23)CC1` [Example 02J, 1-(4-{8-[(5-chloro-6-fluoro-1H-indazol-4-yl)oxy]-2-[(3R)-tetrahydrofuran-3-yloxy]pyrido[3,4-d]pyrimidin-4-yl}piperazin-1-yl)prop-2-en-1-one], the “MSRA (% modification) 5.0 μM 0.25 hr” value in assay [1] is reported as 26%. For the same molecule, the IC50 in assay [2] is 0.62 µM.

In the case of `C=CC(=O)N1CCN(c2nc(OC[C@@H]3CCCN3C)nc3c(Oc4c(Cl)ccc5[nH]ncc45)cccc23)CC1` [Example 02L, 1-[4-(8-[(5-chloro-1H-indazol-4-yl)oxy]-2-{[(2S)-1-methylpyrrolidin-2-yl]methoxy}quinazolin-4-yl)piperazin-1-yl]prop-2-en-1-one], the “MSRA (% modification) 5.0 μM 0.25 hr” value in assay [1] is 31%. In assay [2], this molecule registered a half-inhibitory concentration (IC50) of 0.146 µM.

Consider `C=CC(=O)N1CCN(c2ncnc3c(Oc4c(C)cccc4Cl)nccc23)CC1` [Example 03, 1-{4-[8-(2-Chloro-6-methylphenoxy)pyrido[3,4-d]pyrimidin-4-yl]piperazin-1-yl}prop-2-en-1-one], for which the “MSRA (% modification) 10 μM 0.50 hr” value in assay [1] came to 15%. Also, the IC50 in assay [2] is above 30 µM.

Consider `C=CC(=O)N1CCN(c2ncnc3c(Oc4c(C)ccc5[nH]ncc45)nc(C(F)(F)F)cc23)CC1` [Example 03A, 1-(4-{8-[(5-methyl-1H-indazol-4-yl)oxy]-6-(trifluoromethyl)pyrido[3,4-d]pyrimidin-4-yl}piperazin-1-yl)prop-2-en-1-one], for which the “MSRA (% modification) 10 μM 0.50 hr” value in assay [1] was determined as 28%. Moreover, the IC50 in assay [2] was 2.74 µM.

Take `C=CC(=O)N1CCN(c2nc(N3CCN(C)CC3)nc3c(Oc4c(C)ccc5[nH]ncc45)nccc23)CC1` [Example 03B, 1-(4-{8-[(5-methyl-1H-indazol-4-yl)oxy]-2-(4-methylpiperazin-1-yl)pyrido[3,4-d]pyrimidin-4-yl}piperazin-1-yl)prop-2-en-1-one]: in assay [1], the “MSRA (% modification) 10 μM 0.50 hr” value is 6%. The same molecule registered a half-inhibitory concentration (IC50) in assay [2] of 27.1 µM.

As for `C=CC(=O)N1CCN(c2ncnc3c(Oc4c(C)ccc5[nH]ncc45)cccc23)C[C@H]1C` [Example 03C, 1-[(2R)-2-methyl-4-{8-[(5-methyl-1H-indazol-4-yl)oxy]quinazolin-4-yl}piperazin-1-yl]prop-2-en-1-one], in assay [1], the “MSRA (% modification) 10 μM 0.25 hr” value worked out at 3% and the “MSRA (% modification) 10 μM 0.50 hr” value stood at 8%. Also, in assay [2], 24.2 µM corresponded to half-maximal inhibition (IC50).

For the molecule `C=CC(=O)N1CCN(c2nc(OCCN(C)C)nc3c(Oc4c(C)ccc5[nH]ncc45)cccc23)CC1` [Example 03E, 1-(4-{2-[2-(dimethylamino)ethoxy]-8-[(5-methyl-1H-indazol-4-yl)oxy]quinazolin-4-yl}piperazin-1-yl)prop-2-en-1-one], in assay [1], the “MSRA (% modification) 10 μM 0.50 hr” value turned out to be 40%. The half-maximal inhibitory concentration (IC50) in assay [2] came to 1.44 µM.

For `C=CC(=O)N1CCN(c2nc(NC(C)c3nncn3C)nc3c(Oc4c(C)ccc5[nH]ncc45)cccc23)CC1` (stereo not shown) [Example 03F, 1-[4-(8-[(5-methyl-1H-indazol-4-yl)oxy]-2-{[1-(4-methyl-4H-1,2,4-triazol-3-yl)ethyl]amino}quinazolin-4-yl)piperazin-1-yl]prop-2-en-1-one], in assay [1], the “MSRA (% modification) 10 μM 0.50 hr” value is recorded as 12%. In addition, the IC50 in assay [2] was above 30 µM.

In the case of `C=CC(=O)N1CCN(c2nc(OC[C@@H]3CCCN3C)nc3c(Oc4c(C)ccc5[nH]ncc45)nc(Cl)cc23)CC1` [Example 03G, 1-[4-(6-chloro-8-[(5-methyl-1H-indazol-4-yl)oxy]-2-{[(2S)-1-methylpyrrolidin-2-yl]methoxy}pyrido[3,4-d]pyrimidin-4-yl)piperazin-1-yl]prop-2-en-1-one], the “MSRA (% modification) 10 μM 0.25 hr” value in assay [1] turned out to be 72%. It took 0.155 µM to reach half-maximal inhibition in assay [2] (IC50).

On to `C=CC(=O)N1CCN(c2nc(OC[C@@H]3COCCN3C)nc3c(Oc4c(Cl)c(F)cc5[nH]ncc45)nccc23)CC1` [Example 03H, 1-[4-(8-[(5-chloro-6-fluoro-1H-indazol-4-yl)oxy]-2-{[(3S)-4-methylmorpholin-3-yl]methoxy}pyrido[3,4-d]pyrimidin-4-yl)piperazin-1-yl]prop-2-en-1-one], for which, in assay [1], the “MSRA (% modification) 5.0 μM 0.25 hr” value was found to be 51% and the “MSRA (% modification) 10 μM 0.50 hr” value worked out at 72%. This molecule also yielded an IC50 in assay [2] of 0.842 µM.

As to `C=CC(=O)N1CCN(c2nc(Oc3cccnc3CC)nc3c(Oc4c(Cl)c(F)cc5[nH]ncc45)nccc23)CC1` [Example 03I, 1-(4-{8-[(5-chloro-6-fluoro-1H-indazol-4-yl)oxy]-2-[(2-ethyl-pyridin-3-yl)oxy]pyrido[3,4-d]pyrimidin-4-yl}piperazin-1-yl)prop-2-en-1-one], in assay [1], the “MSRA (% modification) 5.0 μM 0.25 hr” value amounted to 52%. In assay [2], this molecule had an IC50 of 0.06 µM.

For `C=CC(=O)N1CCN(c2nc(OCC3CC(=O)N(C)C3)nc3c(Oc4c(Cl)c(F)cc5[nH]ncc45)nccc23)CC1` (stereo not shown) [Example 03J, 4-[({4-(4-acryloylpiperazin-1-yl)-8-[(5-chloro-6-fluoro-1H-indazol-4-yl)oxy]pyrido[3,4-d]pyrimidin-2-yl}oxy)methyl]-1-methylpyrrolidin-2-one], the “MSRA (% modification) 5.0 μM 0.25 hr” value in assay [1] was determined as 77%. In assay [2], inhibition was half-maximal at 0.855 µM (IC50).

As for `C=CS(=O)(=O)N1CCN(c2ncnc3c(Oc4c(Cl)c(C)cc5[nH]ncc45)nccc23)CC1` [Example 04, 8-[(5-chloro-6-methyl-1H-indazol-4-yl)oxy]-4-[4-(ethenylsulfonyl)piperazin-1-yl]pyrido[3,4-d]pyrimidine], the “MSRA (% modification) 10 μM 0.50 hr” value in assay [1] was found to be 25%. In addition, the half-inhibitory concentration (IC50) in assay [2] is 11.7 µM.

For the molecule `C=CC(=O)N1CCN(c2ncnc3c(Oc4c(Cl)ccc5[nH]ncc45)nc(C(F)(F)F)cc23)CC1` [Example 04A], the “MSRA (% modification) 10 μM 0.50 hr” value in assay [1] worked out at 40%. Also, half-maximal inhibition in assay [2] (IC50) required 2.26 µM.

With `C=CC(=O)N1CCN(c2nc(OCCCN(C)C)nc3c(Oc4c(C)ccc5[nH]ncc45)nccc23)CC1` [Example 04B, 1-(4-{2-[3-(dimethylamino)propoxy]-8-[(5-methyl-1H-indazol-4-yl)oxy]pyrido[3,4-d]pyrimidin-4-yl}piperazin-1-yl)prop-2-en-1-one], in assay [1], the “MSRA (% modification) 10 μM 0.50 hr” value was determined as 21%. Also, the IC50 in assay [2] came out at 23 µM.

`C=CC(=O)N1CCN(c2ncnc3c(Oc4c(C(F)(F)F)ccc5[nH]ncc45)nccc23)CC1` [Example 04C, 1-[4-(8-{[5-(trifluoromethyl)-1H-indazol-4-yl]oxy}pyrido[3,4-d]pyrimidin-4-yl)piperazin-1-yl]prop-2-en-1-one]: the “MSRA (% modification) 10 μM 0.50 hr” value in assay [1] is given as 21%. This molecule also gave an IC50 in assay [2] of 18.2 µM.

As to `C=CC(=O)N1CCN(c2nc(N3CC(N(C)C)C3)nc3c(Oc4c(Cl)c(C)cc5[nH]ncc45)nccc23)CC1` [Example 04E, 1-(4-{8-[(5-chloro-6-methyl-1H-indazol-4-yl)oxy]-2-[3-(dimethylamino)azetidin-1-yl]pyrido[3,4-d]pyrimidin-4-yl}piperazin-1-yl)prop-2-en-1-one], in assay [1], the “MSRA (% modification) 5.0 μM 0.25 hr” value is given as 71%, the “MSRA (% modification) 10 μM 0.25 hr” value came out at 60% and the “MSRA (% modification) 10 μM 0.50 hr” value came to 62%. In assay [2], this molecule registered an IC50 of 0.585 µM.
